Data: PubChem BioAssay AID651975 (The Scripps Research Institute Molecular Screening Center, 2013)
Activity calls are given as the source filed them. No rule for the calls is given here.

Test system: StAR promoter luciferase reporter cells, luminescence inhibition
Assay: StAR promoter reporter inhibition counter-screen, late-stage follow-up, counter-screen for LRH-1 inverse agonist project, cell-based, luminescence, dose response (AID 651975)

SMILES | IC50
O=C(Nc1ccc(S(=O)(=O)N2CCOCC2)cc1)c1cccc([N+](=O)[O-])c1 | > 35.9 µM (inactive)
CCOc1ccc(NC(=O)CSc2nccn(-c3ccc4c(c3)OCCO4)c2=O)cc1 | > 35.9 µM (inactive)
Cc1ccc(NC(=O)CSc2sc3c(O)cc(=O)[nH]c3c2C#N)c(F)c1 | > 35.9 µM (inactive)
Cc1cccc(NC(=O)COC(=O)Cc2cccs2)c1C | > 35.9 µM (inactive)
COC(=O)c1ccc(NC(=O)COc2cccc(-n3cnnn3)c2)cc1 | > 35.9 µM (inactive)
COCC(=O)NC1CCN(CC(=O)Nc2ccc(OC)cc2[N+](=O)[O-])CC1 | > 35.9 µM (inactive)
CN1CCN(c2ccc(S(=O)(=O)N3CCCCC3)cc2NC(=O)COc2ccc([N+](=O)[O-])cc2)CC1 | > 35.9 µM (inactive)
Cc1cc(Br)ccc1NC(=O)CN1C(=O)C2CC=CCC2C1=O (stereo not given) | 27.8 µM (inactive)
COC(=O)c1ccc(NC(=O)CN2CCN(c3ccc(Cl)cc3)CC2)cc1 | > 35.9 µM (inactive)
CCOc1ccc(NC(=O)CN2CCN(CC(=O)Nc3ccc(OC)cc3)CC2)cc1 | > 35.9 µM (inactive)
COc1ccc(NS(=O)(=O)c2ccc(OCC(=O)N3CCN(C)CC3)cc2)cc1Cl | > 35.9 µM (inactive)
COc1ccccc1Oc1nnnn1-c1ccc(C(N)=O)cc1 | > 35.9 µM (inactive)
O=C(COC(=O)c1ccc[n+]([O-])c1)Nc1ccc([N+](=O)[O-])cc1Cl | > 35.9 µM (inactive)
O=c1[nH]c(Nc2ccc3c(c2)OCCO3)nnc1Cc1ccccc1 | > 35.9 µM (inactive)
COc1ccc(NC(=O)COC(=O)c2c(-c3ccccc3)noc2C)cc1 | 33.9 µM (inactive)
CCCc1cc(=O)oc2cc(OCC(=O)NCCc3ccc(S(N)(=O)=O)cc3)ccc12 | > 35.9 µM (inactive)
CCc1cc(=O)[nH]c(SCC(=O)Nc2ccc3c(c2)OCCO3)n1 | > 35.9 µM (inactive)
Cc1ccc(NC(=O)COC(=O)C(NS(=O)(=O)c2ccc(Cl)cc2)C(C)O)cc1C (stereo not given) | > 35.9 µM (inactive)
O=C(OCC(=O)N1CCN(C(=O)COC(=O)c2ccc(O)cc2O)CC1)c1ccc(O)cc1O | > 35.9 µM (inactive)
CCn1c(SCC(=O)Nc2ccc(Cl)cc2)nnc1C1CC1 | > 35.9 µM (inactive)
COc1ccc(NC(=O)CSc2sc3c(O)cc(=O)[nH]c3c2C#N)c(OC)c1 | > 35.9 µM (inactive)
Cc1cc(C)c2sc(NC(=O)c3ccc([N+](=O)[O-])o3)nc2c1 | > 35.9 µM (inactive)
COC(=O)c1ccc(NC(=O)CSc2nn3c(=O)c(C)nnc3s2)cc1 | > 35.9 µM (inactive)
CCOc1ccc(OCCN2C(=O)NC(Cc3c[nH]c4ccccc34)C2=O)cc1 (stereo not given) | > 35.9 µM (inactive)

SMILES | IC50
Cc1cc(C)c2nc(NC(=O)c3ccc([N+](=O)[O-])o3)sc2c1 | > 35.9 µM (inactive)
Cc1ccc(-c2csc(NC(=O)c3ccc([N+](=O)[O-])o3)n2)cc1 | > 35.9 µM (inactive)
O=C(CSc1nc(=O)n2cc(Cl)ccc2n1)Nc1ccc2c(c1)OCCO2 | > 35.9 µM (inactive)
Cc1ccn2c(=O)nc(SCC(=O)Nc3ccc4c(c3)OCCO4)nc2c1 | > 35.9 µM (inactive)
O=C(COC(=O)CCN1C(=O)C2CC=CCC2C1=O)NCCc1ccc(F)cc1 (stereo not given) | > 35.9 µM (inactive)
O=C(COc1ccc2c3c(c(=O)oc2c1)CCC3)NCc1ccncc1 | > 35.9 µM (inactive)
CC(=O)Nc1ncc(Cc2cc(Cl)ccc2Cl)s1 | > 35.9 µM (inactive)
CC(=O)c1ccc(OC(C)C(=O)OCC(=O)NCCc2ccccc2)cc1 (stereo not given) | > 35.9 µM (inactive)
CCCc1cc(=O)oc2cc(OCC(=O)NCc3ccccn3)ccc12 | > 35.9 µM (inactive)
COC(=O)c1ccc(CNC(=O)COC(=O)c2cc(Cl)nc(Cl)c2)cc1 | > 35.9 µM (inactive)
O=C(NCc1ccco1)c1nn(-c2ccccc2)c(=O)c2ccccc12 | > 35.9 µM (inactive)
CC(=O)Nc1ccc(N=c2cc([N+](=O)[O-])cc(Cl)n2O)cc1 | > 35.9 µM (inactive)
Cc1cc(OCC(=O)Nc2nccs2)c2c(C)cc(=O)oc2c1 | > 35.9 µM (inactive)
Cc1ccc2cccc(OCC(=O)NCCC3=CCCCC3)c2n1 | > 35.9 µM (inactive)
COc1ccc(NC(=O)CSc2ccc3c(c2)OCCO3)cc1 | > 35.9 µM (inactive)
CCCc1nnc(SCC(=O)Nc2ccc(C(=O)OCC)cc2)o1 | > 35.9 µM (inactive)
Cc1nn(CC(=O)Nc2ccc3c(c2)OCCO3)c(C)c1[N+](=O)[O-] | > 35.9 µM (inactive)
COc1ccc(CCNC(=O)COC(=O)c2cccn2C)cc1 | > 35.9 µM (inactive)
Cc1cccc(NC(=O)COC(=O)CN2C(=O)c3ccccc3C2=O)c1C | > 35.9 µM (inactive)
COC(=O)c1ccc(NC(=O)CSc2nc3ncccc3[nH]2)cc1 | > 35.9 µM (inactive)
O=C(CN1C(=O)CCC1=O)Nc1ccc(Br)cc1 | > 35.9 µM (inactive)
Cc1cc(=O)oc2c(C)c(OCC(=O)NC3CC(C)(C)NC(C)(C)C3)ccc12 | > 35.9 µM (inactive)
O=C(CSc1nnc(CNC(=O)c2c(F)cccc2F)o1)Nc1ccc2c(c1)OCCO2 | > 35.9 µM (inactive)
O=C(Nc1nc2c(Cl)cccc2s1)c1ccc([N+](=O)[O-])o1 | > 35.9 µM (inactive)

SMILES | IC50
CCc1cc(=O)oc2c(C)c(OCC(=O)NCCN3CCOCC3)ccc12 | > 35.9 µM (inactive)
Cc1cc(Br)ccc1NC(=O)CN1C(=O)CCC1=O | > 35.9 µM (inactive)
CCOc1ccc(NC(=O)CSc2nc3[nH]ncc3c(=O)[nH]2)cc1 | > 35.9 µM (inactive)
CCCc1cc(=O)oc2c(C)c(OCC(=O)NCCN3CCOCC3)ccc12 | > 35.9 µM (inactive)
CCOc1ccc(OCCC(=O)OCC(=O)Nc2ccc3c(c2)OCCO3)cc1 | > 35.9 µM (inactive)
COc1ccc(CCNC(=O)COC(=O)c2cc(Cl)nc(Cl)c2)cc1 | > 35.9 µM (inactive)
CC(C)CC1(C)NC(=O)N(CC(=O)Nc2ccc3c(c2)OCCO3)C1=O (stereo not given) | > 35.9 µM (inactive)
CCOc1ccc(NC(=O)CSc2nnc(C(C)C)n2CC)cc1 | > 35.9 µM (inactive)
O=C(COC(=O)c1ccc(=O)n(Cc2ccccc2)n1)Nc1ccc2c(c1)OCCO2 | > 35.9 µM (inactive)
O=C1CCCN2N=C(SCC(=O)Nc3ccc(Br)cc3)SC2=N1 | > 35.9 µM (inactive)
N#CCSc1ccccc1NC(=O)CN1C(=O)C2CC=CCC2C1=O (stereo not given) | > 35.9 µM (inactive)
O=C(NCC1CCCO1)c1ccc(NC(=O)c2cccc([N+](=O)[O-])c2)cc1 (stereo not given) | > 35.9 µM (inactive)
O=C(COc1ccc2c3c(c(=O)oc2c1)CCCC3)NCc1ccccn1 | > 35.9 µM (inactive)
COc1ccc(-n2c(N)c(C(=O)NCc3cccnc3)sc2=S)cc1 | > 35.9 µM (inactive)
CCOc1ccc(NC(=O)COC(=O)CC2CCCCC2)cc1 | > 35.9 µM (inactive)
COC(=O)c1ccc(NC(=O)CSc2ccc(-c3ccccn3)nn2)cc1 | > 35.9 µM (inactive)
COc1ccc(NC(=O)CN2C(=O)NC3(CCCC3)C2=O)cc1 | > 35.9 µM (inactive)
CCCc1cc(=O)oc2c(C)c(OCC(=O)NCCCn3ccnc3)ccc12 | > 35.9 µM (inactive)
COc1ccc(NC(=O)COC(=O)c2cc(S(=O)(=O)N3CCCC3)ccc2O)cc1 | > 35.9 µM (inactive)
COc1ccc(C2(C)NC(=O)N(CC(=O)NCCC3=CCCCC3)C2=O)cc1OC (stereo not given) | > 35.9 µM (inactive)
COc1ccc(NC(=O)CSc2nc(N)c(-c3ccccc3)c(=O)[nH]2)cc1 | > 35.9 µM (inactive)
NC(=O)C1CCN(C(=O)COc2ccc3c4c(c(=O)oc3c2)CCCC4)CC1 | > 35.9 µM (inactive)
COC(=O)c1ccc(NC(=O)CSc2nncn2-c2cccnc2)cc1 | > 35.9 µM (inactive)
CCCN(CC(=O)Nc1ccc(C(C)=O)cc1)CC(=O)Nc1ccccc1C | > 35.9 µM (inactive)

SMILES | IC50
CCc1c(C)nc(SCC(=O)Nc2ccc3c(c2)OCCO3)[nH]c1=O | > 35.9 µM (inactive)
COc1ccc(CC(NC(C)=O)C(=O)NC2CCN(c3nnnn3-c3ccccc3)CC2)cc1 (stereo not given) | > 35.9 µM (inactive)
CCOc1ccc(NC(=O)CSc2nncc(=O)n2N)cc1 | > 35.9 µM (inactive)
CC1SC(C)C(=O)N(CC(=O)Nc2ccc3c(c2)OCO3)C1=O (stereo not given) | > 35.9 µM (inactive)
COc1ccc(CCNC(=O)CSc2nc3[nH]c(=O)cc(O)c3s2)cc1 | > 35.9 µM (inactive)
COc1ccc(CCNC(=O)CSc2nn3c(=O)c(C)nnc3s2)cc1OC | > 35.9 µM (inactive)
CC(=O)Nc1ccc(NC(=O)CSc2ccc(-c3ccco3)nn2)cc1 | > 35.9 µM (inactive)
O=C(COC(=O)c1ccc(Br)cc1)Nc1ccccc1Br | > 35.9 µM (inactive)
COCCn1c(C)cc(/C=C(\C#N)C(=O)OCC(=O)Nc2ccc(S(N)(=O)=O)cc2)c1C | > 35.9 µM (inactive)
CCCc1cc(=O)oc2cc(C)cc(OCC(=O)NC3CC3)c12 | > 35.9 µM (inactive)
COc1ccc(NC(=O)CSc2nnc3ccc(-c4cccnc4)nn23)cc1OC | > 35.9 µM (inactive)
COc1ccc(CCNC(=O)COC(=O)C23CC4CC(CC(C4)C2)C3)cc1 | > 35.9 µM (inactive)
O=C(Nc1ccccc1)c1oc2ccccc2c1NC(=O)C1CC1 | > 35.9 µM (inactive)
COc1ccc(CCNC(=O)COC(=O)Cc2ccccc2[N+](=O)[O-])cc1 | > 35.9 µM (inactive)
CCOc1ccc(NC(=O)COC(=O)COc2cccc3c2OC(C)(C)C3)cc1 | > 35.9 µM (inactive)
Cc1ccc(NC(=O)COC(=O)C(NS(=O)(=O)c2ccc(Cl)cc2)C(C)O)c(Br)c1 (stereo not given) | > 35.9 µM (inactive)
Cc1ccc(NC(=O)CSc2nc3[nH]c(=O)cc(O)c3s2)c(Br)c1 | > 35.9 µM (inactive)
O=C(CSc1nnc(CNC(=O)c2ccccc2F)o1)Nc1ccc2c(c1)OCCO2 | > 35.9 µM (inactive)
O=C(Nc1ccc(Br)cn1)c1ccc([N+](=O)[O-])o1 | > 35.9 µM (inactive)
CC(=O)c1ccc(NC(=O)C(C)O/N=C(\N)c2ccccc2)cc1 (stereo not given) | > 35.9 µM (inactive)
CCCc1cc(=O)oc2c(C)c(OCC(=O)NC3CC(C)(C)NC(C)(C)C3)ccc12 | > 35.9 µM (inactive)
Cc1cc(Br)ccc1NC(=O)CSc1nnc(CN2CCOCC2)n1C | > 35.9 µM (inactive)
COc1ccc(CCNC(=O)CSc2ccc(NC(C)=O)cc2)cc1OC | > 35.9 µM (inactive)
